Data on 14 molecules can be found in ChEMBL document CHEMBL5724914, “Linking interpersonal differences in gut microbiota composition and drug biotransformation activity” (2024).

For data set [1] the following is noted: human gut metagenome, 24 h, 2 µM.
For data set [2] the following is noted: human gut metagenome, 24 h, 2 µM. This is another data set of the same source.
A short description of data set [3]: The drug is tested on Z-003 corresponding to pig gut metagenome with ENA study accession number: PRJEB37062 and ENA sample accession number: ERS12561803 for biotransformation under anaerobic condition. The drug concentrations were measured over 9 timepoints collected between 0 and 24 hours of incubation by liquid-chromatography-coupled mass spectrometry (LC–MS). The settings on record: 2 µM.

The nature of data set [4]: The drug is tested on WLS-073 corresponding to human gut metagenome with ENA study accession number: PRJEB37062 and ENA sample accession number: ERS12561749 for biotransformation under anaerobic condition. The drug concentrations were measured over 9 timepoints collected between 0 and 24 hours of incubation by liquid-chromatography-coupled mass spectrometry (LC–MS). Particulars: 2 µM.

A short description of data set [5]: The drug is tested on WLS-038 corresponding to human gut metagenome with ENA study accession number: PRJEB37062 and ENA sample accession number: ERS12561745 for biotransformation under anaerobic condition. The drug concentrations were measured over 9 timepoints collected between 0 and 24 hours of incubation by liquid-chromatography-coupled mass spectrometry (LC–MS). The settings on record: 2 µM.

A short description of data set [6]: The drug is tested on WLS-370 corresponding to human gut metagenome with ENA study accession number: PRJEB37062 and ENA sample accession number: ERS12561793 for biotransformation under anaerobic condition. The drug concentrations were measured over 9 timepoints collected between 0 and 24 hours of incubation by liquid-chromatography-coupled mass spectrometry (LC–MS). Particulars: 2 µM.

For data set [7] the following is noted: human gut metagenome, 24 h, 2 µM. This is another data set of the same source.
Data set [8] in a line: The drug is tested on Z-009 corresponding to pig gut metagenome with ENA study accession number: PRJEB37062 and ENA sample accession number: ERS12561809 for biotransformation under anaerobic condition. The drug concentrations were measured over 9 timepoints collected between 0 and 24 hours of incubation by liquid-chromatography-coupled mass spectrometry (LC–MS). Particulars: 2 µM.

A short description of data set [9]: The drug is tested on Z-002 corresponding to rabbit gut metagenome with ENA study accession number: PRJEB37062 and ENA sample accession number: ERS12561802 for biotransformation under anaerobic condition. The drug concentrations were measured over 9 timepoints collected between 0 and 24 hours of incubation by liquid-chromatography-coupled mass spectrometry (LC–MS). Particulars: 2 µM.
Further: call rule not given here.

Turning to `CO[C@]12C[C@@H](COC(=O)c3cncc(Br)c3)CN(C)[C@@H]1Cc1cn(C)c3cccc2c13` [NICERGOLINE], the “Bacterial Biotransformation” value in data set [1] is “Compound NOT metabolized”; in data set [2], “Compound NOT metabolized”; in [3], “Compound metabolized”; in [4], “Compound metabolized”; in [5], “Compound NOT metabolized”; in data set [6], “Compound metabolized”. Further, the “Bacterial Biotransformation” value in data set [7] is reported as “Compound NOT metabolized”; in [8], “Compound metabolized”; in data set [9] it was “Compound metabolized”.

Turning to `COc1ccc2c(c1OC)C(=O)O[C@@H]2[C@H]1c2c(cc3c(c2OC)OCO3)CCN1C` [NOSCAPINE], the “Bacterial Biotransformation” value in [1] is recorded as “Compound metabolized”; in data set [2], “Compound metabolized”; in data set [3] it was “Compound metabolized”; in data set [4], “Compound metabolized”; in [5] it was “Compound NOT metabolized”; in data set [6], “Compound NOT metabolized”. The “Bacterial Biotransformation” value in [7], in data set [8] and in data set [9] was “Compound metabolized” throughout.

For the molecule `CCCc1nc(C(C)(C)O)c(C(=O)OCc2oc(=O)oc2C)n1Cc1ccc(-c2ccccc2-c2nnn[nH]2)cc1` [OLMESARTAN MEDOXOMIL], the “Bacterial Biotransformation” value in data set [1], in [2], in [3], in [4], in data set [5] and in data set [6] was “Compound metabolized” each time. Also, the “Bacterial Biotransformation” value in data set [7], in data set [8] and in data set [9] was “Compound metabolized” throughout.

With `NC(=O)N1c2ccccc2CC(=O)c2ccccc21` [OXCARBAZEPINE], the “Bacterial Biotransformation” value in data set [1] was “Compound metabolized”; in data set [2] it was “Compound NOT metabolized”; in [3], “Compound metabolized”; in data set [4], “Compound NOT metabolized”; in data set [5] it was “Compound NOT metabolized”; in [6] it was “Compound metabolized”. Also, the entries for the “Bacterial Biotransformation” value in [7], in data set [8] and in [9] were “Compound NOT metabolized”, “Compound metabolized” and “Compound metabolized”, respectively.

For `CCN(CC)CC#CCOC(=O)C(O)(c1ccccc1)C1CCCCC1.Cl` (stereo unspecified) [OXYBUTYNIN CHLORIDE], the “Bacterial Biotransformation” value in data set [1] was “Compound metabolized”; in data set [2], “Compound metabolized”; in [3] it was “Compound metabolized”; in data set [4] it was “Compound NOT metabolized”; in data set [5], “Compound metabolized”; in data set [6], “Compound metabolized”. Besides, the “Bacterial Biotransformation” value in data set [7], in data set [8] and in data set [9] was “Compound metabolized” each time.

As for `Fc1ccc([C@@H]2CCNC[C@H]2COc2ccc3c(c2)OCO3)cc1` [PAROXETINE], the “Bacterial Biotransformation” value in data set [1] is listed as “Compound metabolized”; in data set [2], “Compound metabolized”; in data set [3] it was “Compound metabolized”; in data set [4], “Compound NOT metabolized”; in data set [5] it was “Compound metabolized”; in data set [6], “Compound metabolized”. Besides, the “Bacterial Biotransformation” value in data set [7] is “Compound metabolized”; in data set [8], “Compound metabolized”; in [9] it was “Compound NOT metabolized”.

In the case of `O=c1[nH]c2ccccc2n1C1CCN(CCCC(c2ccc(F)cc2)c2ccc(F)cc2)CC1` [PIMOZIDE], the “Bacterial Biotransformation” value in data set [1], in [2], in [3], in data set [4], in [5] and in [6] was “Compound metabolized” each time. Also, the “Bacterial Biotransformation” value is on record as “Compound NOT metabolized” in data set [7], “Compound metabolized” in data set [8] and “Compound NOT metabolized” in data set [9].

As to `COc1cc2nc(N3CCN(C(=O)c4ccco4)CC3)nc(N)c2cc1OC` [PRAZOSIN], the “Bacterial Biotransformation” value in data set [1] is “Compound NOT metabolized”; in data set [2] it was “Compound metabolized”; in data set [3] it was “Compound NOT metabolized”; in [4], “Compound metabolized”; in data set [5], “Compound NOT metabolized”; in [6], “Compound metabolized”. The “Bacterial Biotransformation” value in [7], in [8] and in data set [9] was “Compound NOT metabolized” in each case.

With `CS(=O)(=O)O.OC(CCN1CCCCC1)(c1ccccc1)c1ccccc1` [PRIDINOL METHANESULFONATE], the “Bacterial Biotransformation” value in data set [1] is “Compound NOT metabolized”; in data set [2] it was “Compound metabolized”; in [3], “Compound metabolized”; in data set [4], “Compound NOT metabolized”; in [5] it was “Compound NOT metabolized”; in data set [6], “Compound NOT metabolized”. For the same molecule, the “Bacterial Biotransformation” value is given as “Compound NOT metabolized” in data set [7], “Compound NOT metabolized” in data set [8] and “Compound metabolized” in data set [9].

As for `CC(CN1c2ccccc2Sc2ccccc21)N(C)C` (stereo unspecified) [PROMETHAZINE], the “Bacterial Biotransformation” value in [1] was “Compound metabolized”; in [2] it was “Compound NOT metabolized”; in data set [3], “Compound NOT metabolized”; in data set [4], “Compound NOT metabolized”; in [5], “Compound metabolized”; in [6], “Compound NOT metabolized”. In addition, the “Bacterial Biotransformation” value in [7], in data set [8] and in data set [9] was “Compound NOT metabolized” in each case.

For `OCCOCCN1CCN(C2=Nc3ccccc3Sc3ccccc32)CC1` [QUETIAPINE], the “Bacterial Biotransformation” value in data set [1] was “Compound NOT metabolized”; in data set [2] it was “Compound metabolized”; in data set [3] it was “Compound NOT metabolized”; in [4], “Compound NOT metabolized”; in data set [5] it was “Compound NOT metabolized”; in data set [6], “Compound metabolized”. In addition, the “Bacterial Biotransformation” value in [7] is “Compound NOT metabolized”; in data set [8] it was “Compound NOT metabolized”; in data set [9], “Compound metabolized”.

For `CCC(=O)NCC[C@@H]1CCc2ccc3c(c21)CCO3` [RAMELTEON], the “Bacterial Biotransformation” value is “Compound metabolized” in data set [1]; “Compound metabolized” in data set [2]; “Compound metabolized” in data set [3]; “Compound NOT metabolized” in data set [4]; “Compound metabolized” in [5]; “Compound metabolized” in data set [6]. The “Bacterial Biotransformation” value in data set [7], in data set [8] and in data set [9] was “Compound metabolized” each time.

`CNC(=C[N+](=O)[O-])NCCSCc1ccc(CN(C)C)o1` [RANITIDINE]: the “Bacterial Biotransformation” value in [1] was “Compound NOT metabolized”; in data set [2] it was “Compound metabolized”; in data set [3], “Compound metabolized”; in data set [4] it was “Compound NOT metabolized”; in [5], “Compound NOT metabolized”; in [6] it was “Compound NOT metabolized”. The “Bacterial Biotransformation” value in [7], in data set [8] and in data set [9] was “Compound metabolized” throughout.

For `COC(=O)[C@H]1[C@H]2C[C@@H]3c4[nH]c5cc(OC)ccc5c4CCN3C[C@H]2C[C@@H](OC(=O)c2cc(OC)c(OC)c(OC)c2)[C@@H]1OC` [RESERPINE], the “Bacterial Biotransformation” value in data set [1] is “Compound NOT metabolized”; in data set [2], “Compound metabolized”; in [3], “Compound NOT metabolized”; in data set [4], “Compound NOT metabolized”; in data set [5], “Compound NOT metabolized”; in [6] it was “Compound metabolized”. In addition, the entries for the “Bacterial Biotransformation” value in data set [7], in data set [8] and in data set [9] were “Compound metabolized”, “Compound NOT metabolized” and “Compound NOT metabolized”, respectively.
